Biological target: HDAC8 (Homo sapiens, UniProt Q9BY41)
Details: FIG. 2

HDAC8, sequence (Q9BY41 whole entry): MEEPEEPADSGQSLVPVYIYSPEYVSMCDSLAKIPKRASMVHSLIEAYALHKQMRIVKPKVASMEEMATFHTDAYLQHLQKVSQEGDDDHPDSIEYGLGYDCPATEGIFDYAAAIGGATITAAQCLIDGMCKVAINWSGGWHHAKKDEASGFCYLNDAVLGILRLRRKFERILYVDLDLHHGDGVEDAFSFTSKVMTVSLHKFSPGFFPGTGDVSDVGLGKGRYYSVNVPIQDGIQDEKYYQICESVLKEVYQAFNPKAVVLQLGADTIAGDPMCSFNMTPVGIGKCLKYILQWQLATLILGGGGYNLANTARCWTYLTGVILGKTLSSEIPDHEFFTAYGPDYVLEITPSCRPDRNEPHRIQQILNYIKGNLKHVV

C[S@@+]([O-])CCCCN=C=S [LSF, (R)-1-Isothiocyanato-4-(methylsulfinyl)butane] was tested, and the “inhibition of the enzymatic activity of HDAC8” value was “inhibits” and the “specificity of inhibition, HDAC8 compared to HDAC1” value (HDAC1 and HDAC8 inhibitor Screening Assay Kits) was “specificity of L-sulforaphane for HDAC8 compared to HDAC1”.

From patent publication US9532970B2, “Compositions for anti-inflammatory, antioxidant effects and improved respiratory function by specific histone deacetylase inhibition” (priority 2014, dated 2017)
